Converted amounts (≈) assume the structure as drawn. Where two headings read alike, the source gives them in different places.
Tests used:
C. albicans NCPF3281 = test: Candida panel MIC, serial dilution in 96-well plates; type: cell-based, Candida albicans; conditions: NCPF3281, read-out: MIC C. albicans NCPF3281
Method: (§1) The minimum inhibitory concentration of test compounds were determined in a panel of Candida species (see Table 4 below), using the a serial dilution method in 96-well plates using the following protocol.
(§2) Starter cultures of fungal strains to be tested were grown in 3 mL of RPMI 2% glucose media incubated at 37° C. with shaking at 200 rpm overnight. The culture media used was 900 mL H2O; 10.4 g RPMI 1640 (with L-glutamine and a pH indicator but without bicarbonate); 34.5 g MOPS and 18 g glucose. The pH of the media was adjusted to 7.0 with 1 M sodium hydroxide.
(§3) Solutions of the compound to be tested were prepared by dissolving the compound in DMSO and subsequently into media to the desired concentrations. 200 μL of compound solution was then added to the wells of the 96-well plate using a serial dilution method row-by row of the plate to give a compound concentration gradient across the plate of from 128 μg/mL to 0.25 μg/mL. The last two rows of each plate were control rows containing the culture media alone and the media plus fungi.
(§4) The fungi starter cultures were diluted 1:10 in water in cuvettes. This was then further diluted to an optical density (OD600) of 0.01 in media. 100 μL of the fungi was added to each well giving a starting concentration of fungus of 0.5-5×10^5/mL. One species of fungus was used on each plate. The plates were then held at 37° C. for 24 hours.
(§5) A plate reader was used to measure growth in each well at OD530 nm and the MIC was determined for each test compound. The MIC is defined as the lowest concentration giving rise to inhibition of ≥50% of that of the drug-free control well containing the fungus and media.

C. glabrata NCPF8018 = test: as above; type: cell-based, Candida glabrata; conditions: Nakaseomyces glabratus
Method: as §1, §2
(§6) Solutions of the compound to be tested were prepared by dissolving the compound in DMSO and subsequently into media to the desired concentrations. […] The last two rows of each plate were control rows containing the culture media alone and the media plus fungi.
as §4, §5

C. krusei NCPF3876 = test: microbe, parasite or virus in culture; type: cell-based, Candida krusei; conditions: Pichia kudriavzevii
Method: as §1, §2, §6, §4, §5

C. parapsilosis NCPF3209 = test: microbe, parasite or virus in culture; type: cell-based, Candida parapsilosis; conditions: Lodderomyces parapsilosis
Method: as §1, §2, §6, §4, §5

Candida auris TDG2211 = test: microbe, parasite or virus in culture; type: cell-based; conditions: Candidozyma auris, TDG2211; Table 4, extended panel; 24 hours, ≥50% inhibition; read-out: MIC Candida auris TDG2211
Method: as §1, §2, §6, §4, §5
(§7) The Candida auris strains shown in Table 7 were either taken from the National Collection of Pathogenic Fungi (NCPF) or collected as part of ongoing surveillance studies. The strains were characterised as follows.

Candida auris TDG2506 = test: microbe, parasite or virus in culture; type: cell-based; conditions: Candidozyma auris, TDG2506; Table 4, extended panel; 24 hours, ≥50% inhibition; read-out: MIC Candida auris TDG2506
Method: as §1, §2, §6, §4, §5, §7

C. auris TDG1912 = test: Candida panel MIC, serial dilution in 96-well plates; type: cell-based; conditions: Candidozyma auris, TDG1912; Table 4; 24 hours, ≥50% inhibition; read-out: MIC C. auris TDG1912
Method: as §1, §2, §3, §4, §5

C. tropicalis NCPF8760 = test: as above; type: cell-based
Method: as §1, §2, §3, §4, §5

Candida auris TDG1102 = test: as above; type: cell-based; conditions: Candidozyma auris, TDG1102; Table 4, extended panel; 24 hours, ≥50% inhibition; read-out: MIC Candida auris TDG1102
Method: as §1, §2, §3, §4, §5

Candida auris TDG2512 = test: as above; type: cell-based; conditions: Candidozyma auris, TDG2512; Table 4, extended panel; 24 hours, ≥50% inhibition; read-out: MIC Candida auris TDG2512
Method: as §1, §2, §3, §4, §5

C. auris 8971 = test: as above; type: cell-based, Candida auris; conditions: Candidozyma auris, 8971; Table 4, extended panel; 24 hours, ≥50% inhibition; read-out: MIC C. auris 8971
Method: as §1, §2, §6, §4, §5, §7

C. auris 8977 = test: as above; type: cell-based, Candida auris; conditions: Candidozyma auris, 8977; Table 4, extended panel; 24 hours, ≥50% inhibition; read-out: MIC C. auris 8977
Method: as §1, §2, §6, §4, §5, §7

C. auris 8984 = test: as above; type: cell-based, Candida auris; conditions: Candidozyma auris, 8984; Table 4, extended panel; 24 hours, ≥50% inhibition; read-out: MIC C. auris 8984
Method: as §1, §2, §6, §4, §5, §7

C. albicans 3363 = test: Candida albicans panel MIC; type: cell-based; conditions: Table 6, Candida albicans panel
Method: as §1, §2, §3, §4, §5
(§8) The compounds shown in Table 6 were tested against a further panel of Candida albicans.

C. albicans 3645 = test: Candida albicans panel MIC; type: cell-based; conditions: Table 6, Candida albicans panel
Method: as §1, §2, §3, §4, §5, §8

C. albicans 3880 = test: Candida albicans panel MIC; type: cell-based; conditions: Table 6, Candida albicans panel
Method: as §1, §2, §3, §4, §5, §8

C. albicans 3881 = test: Candida albicans panel MIC; type: cell-based; conditions: Table 6, Candida albicans panel
Method: as §1, §2, §3, §4, §5, §8

C. albicans 3882 = test: Candida albicans panel MIC; type: cell-based; conditions: Table 6, Candida albicans panel
Method: as §1, §2, §3, §4, §5, §8

C. albicans 3990 = test: Candida albicans panel MIC; type: cell-based; conditions: Table 6, Candida albicans panel
Method: as §1, §2, §3, §4, §5, §8

C. albicans 8112 = test: Candida albicans panel MIC; type: cell-based; conditions: Table 6, Candida albicans panel
Method: as §1, §2, §3, §4, §5, §8

[1] = Candida albicans, Table 4, common panel, 24 hours, ≥50% inhibition
[2] = Table 6, Candida albicans panel
[3] = NCPF8018, Table 4, common panel, 24 hours, ≥50% inhibition, read-out: MIC C. glabrata NCPF8018
[4] = NCPF3876, Table 4, common panel, 24 hours, ≥50% inhibition, read-out: MIC C. krusei NCPF3876
[5] = NCPF3209, Table 4, common panel, 24 hours, ≥50% inhibition, read-out: MIC C. parapsilosis NCPF3209
[6] = NCPF8760, Table 4, common panel, 24 hours, ≥50% inhibition, read-out: MIC C. tropicalis NCPF8760

SMILES	MIC (C. albicans NCPF3281; [1]) [µg/mL]	MIC (C. albicans NCPF3281; [2]) [µg/mL]	MIC (C. glabrata NCPF8018; [3]) [µg/mL]	MIC (C. krusei NCPF3876; [4]) [µg/mL]	MIC (C. parapsilosis NCPF3209; [5]) [µg/mL]	MIC (Candida auris TDG2211) [µg/mL]	MIC (Candida auris TDG2506) [µg/mL]	MIC (C. auris TDG1912) [µg/mL]	MIC (C. tropicalis NCPF8760; [6]) [µg/mL]	MIC (Candida auris TDG1102) [µg/mL]	MIC (Candida auris TDG2512) [µg/mL]	MIC (C. auris 8971) [µg/mL]	MIC (C. auris 8977) [µg/mL]	MIC (C. auris 8984) [µg/mL]	MIC (C. albicans 3363) [µg/mL]	MIC (C. albicans 3645) [µg/mL]	MIC (C. albicans 3880) [µg/mL]	MIC (C. albicans 3881) [µg/mL]	MIC (C. albicans 3882) [µg/mL]	MIC (C. albicans 3990) [µg/mL]	further results
OC(CN1CCC(Nc2ccc(Cc3ccccc3)cc2)CC1)(Cn1cncn1)c1ccc(F)cc1F (stereo not shown) [Example 11, 1-(4-((4-benzylphenyl)amino)piperidin-1-yl)-2-(2,4-difluorophenyl)-3-(1H-1,2,4-triazol-1-yl)propan-2-ol]	≤ 0.125	≤ 0.00098	≤ 0.125	≤ 0.125	≤ 0.125	≤ 0.125	≤ 0.125	0.125 (≈ 0.248 µM)	≤ 0.125	≤ 0.125	≤ 0.125	≤ 0.125	≤ 0.125	≤ 0.125	0.0156 (≈ 0.031 µM)	0.00391 (≈ 0.00776 µM)	0.0313 (≈ 0.0622 µM)	0.0313 (≈ 0.0622 µM)	0.0625 (≈ 0.124 µM)	0.0039 to 0.0625 (≈ 0.00774 to 0.124 µM)	MIC (C. albicans 8112): 0.00195 µg/mL (≈ 0.00387 µM)
OC(CN1CCC(N2CCC(Nc3ccc(Cc4ccccc4)cc3)CC2)CC1)(Cn1cncn1)c1ccc(F)cc1F (stereo not shown) [Example 12, 1-(4-((4-benzylphenyl)amino)-[1,4′-bipiperidin]-1′-yl)-2-(2,4-difluorophenyl)-3-(1H-1,2,4-triazol-1-yl)propan-2-ol]	≤ 0.125	0.002 to 0.004 (≈ 0.00341 to 0.00682 µM)	0.125 (≈ 0.213 µM)	≤ 0.125	≤ 0.125	≤ 0.125	≤ 0.125	0.125 (≈ 0.213 µM)	≤ 0.125	≤ 0.125	≤ 0.125	≤ 0.125	≤ 0.125	≤ 0.125	0.0625 (≈ 0.107 µM)	0.00391 (≈ 0.00666 µM)	0.0313 (≈ 0.0533 µM)	0.0625 (≈ 0.107 µM)	0.0625 (≈ 0.107 µM)	0.0313 (≈ 0.0533 µM)	MIC (C. glabrata NCPF8018; NCPF8018, read-out: MIC C. Glabrata NCPF8018): 0.25 µg/mL (≈ 0.426 µM); MIC (C. krusei NCPF3876; NCPF3876, read-out: MIC C. Krusei NCPF3876): ≤ 0.125 µg/mL; MIC (C. parapsilosis NCPF3209; NCPF3209, read-out: MIC C. Parapsilosis NCPF3209): ≤ 0.125 µg/mL; MIC (C. tropicalis NCPF8760; NCPF8760, read-out: MIC C. Tropicalis NCPF8760): ≤ 0.125 µg/mL; MIC (C. albicans 8112): 0.00391 µg/mL (≈ 0.00666 µM)

Reference: patent US20240246920A1, “TRIAZOLE DERIVATIVES WITH ANTIFUNGAL ACTIVITY” (King's College London, priority 2020, published 2024)
